pIC50: −log10 of the molar value.
Key:
[1] = molecular target: Cyclin-dependent kinase 2 (Homo sapiens, UniProt P24941); assay: Inhibition of Cyclin-dependent kinase 2
[2] = molecular target: Cyclin-dependent kinase 1 (Homo sapiens, UniProt P06493); assay: Inhibition of Cyclin-dependent kinase 1
Chain of Cyclin-dependent kinase 1 (P06493 whole entry): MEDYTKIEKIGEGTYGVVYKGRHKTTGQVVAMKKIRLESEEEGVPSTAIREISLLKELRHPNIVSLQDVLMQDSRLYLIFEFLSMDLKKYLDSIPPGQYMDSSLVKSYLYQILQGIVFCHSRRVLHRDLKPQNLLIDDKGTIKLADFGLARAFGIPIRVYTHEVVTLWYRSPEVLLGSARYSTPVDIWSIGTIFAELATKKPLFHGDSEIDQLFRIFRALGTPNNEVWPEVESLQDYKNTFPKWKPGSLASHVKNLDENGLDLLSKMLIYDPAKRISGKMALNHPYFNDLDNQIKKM

Row | SMILES | pIC50 [1] | pIC50 [2]
1 | CC(C)n1cnc2c(NC3CCCC3)nc(NCCCO)nc21 | 6.05 | 5.62
2 | CC(C)n1cnc2c(NC34CC5CC(CC(C5)C3)C4)nc(NCCCO)nc21 | < 4.00 | < 4.00
3 | CC(C)n1cnc2c(NCc3ccccc3)nc(NCCCO)nc21 [BOHEMINE] | 6.10 | –
4 | CC(C)n1cnc2c(N)nc(NCCCO)nc21 | 5.62 | 5.00
5 | CC(C)n1cnc2c(NCc3ccccc3)ncnc21 | 5.35 | 5.46
6 | CC(C)C(CO)Nc1nc(NCc2cccc(O)c2)c2ncn(C(C)C)c2n1 (stereo unspecified) | 7.52 | –
7 | CC(C)n1cnc2c(NCc3ccccc3)nc(NC[C@@H](C)O)nc21 | 6.70 | –
